What was measured:
Cytochrome P450 2A6 = molecular target: T1, Cytochrome P450 2A6 (Homo sapiens, UniProt P11509); settings: bti-tn-5b1-4; also: in other assays of this panel Not Active means under 50% inhibition at 10 µM
T1 sequence (P11509 whole entry): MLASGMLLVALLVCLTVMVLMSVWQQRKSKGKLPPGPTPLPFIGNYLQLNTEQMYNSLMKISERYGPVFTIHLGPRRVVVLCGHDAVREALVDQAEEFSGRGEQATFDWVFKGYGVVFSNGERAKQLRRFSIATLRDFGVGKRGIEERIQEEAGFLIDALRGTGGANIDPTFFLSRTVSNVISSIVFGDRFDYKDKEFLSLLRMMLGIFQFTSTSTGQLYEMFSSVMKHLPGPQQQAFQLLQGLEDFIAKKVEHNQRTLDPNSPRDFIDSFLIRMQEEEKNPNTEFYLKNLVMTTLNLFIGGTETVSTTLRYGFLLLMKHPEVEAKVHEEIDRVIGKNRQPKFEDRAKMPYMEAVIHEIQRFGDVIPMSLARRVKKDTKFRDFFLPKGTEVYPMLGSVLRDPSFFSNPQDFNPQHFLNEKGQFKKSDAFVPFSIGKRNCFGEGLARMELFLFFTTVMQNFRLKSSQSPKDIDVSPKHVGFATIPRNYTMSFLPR

[1] = molecular target: Receptor tyrosine-protein kinase erbB-2 (Homo sapiens, UniProt P04626); experiment: biochemical; format: cell-based, Insect cells;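 also: inhibition of HER2 kinase enzyme activity, measured with Poly(Glu:Tyr) as the phosphorylation substrate; in other assays of this panel Not Active means under 50% inhibition at 10 µM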
[2] = molecular target: T2, Neuropeptide Y receptor type 2 (Homo sapiens, UniProt P49146); format: cell membranes, Membrane; settings: kan-ts; also: in other assays of this panel Not Active means under 50% inhibition at 10 µM
T2 sequence (P49146 whole entry): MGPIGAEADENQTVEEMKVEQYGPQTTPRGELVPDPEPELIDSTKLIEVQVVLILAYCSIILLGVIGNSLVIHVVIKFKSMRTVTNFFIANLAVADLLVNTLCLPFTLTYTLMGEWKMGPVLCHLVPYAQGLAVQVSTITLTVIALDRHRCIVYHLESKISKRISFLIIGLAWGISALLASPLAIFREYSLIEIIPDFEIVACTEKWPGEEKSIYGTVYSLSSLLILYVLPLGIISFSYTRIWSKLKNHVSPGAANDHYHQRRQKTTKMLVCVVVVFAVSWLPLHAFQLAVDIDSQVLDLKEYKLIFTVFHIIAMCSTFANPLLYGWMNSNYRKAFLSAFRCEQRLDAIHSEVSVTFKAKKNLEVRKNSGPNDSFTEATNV

[3] = molecular target: T3, 3-hydroxy-3-methylglutaryl-coenzyme A reductase (Homo sapiens, UniProt P04035); set-up: species or system Escherichia coli;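 also: enzyme inhibition assay of HMG-CoA reductase using radiolabeled [14C]HMG-CoA as substrate; in other assays of this panel Not Active means under 50% inhibition at 10 µM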
T3 sequence (P04035 whole entry): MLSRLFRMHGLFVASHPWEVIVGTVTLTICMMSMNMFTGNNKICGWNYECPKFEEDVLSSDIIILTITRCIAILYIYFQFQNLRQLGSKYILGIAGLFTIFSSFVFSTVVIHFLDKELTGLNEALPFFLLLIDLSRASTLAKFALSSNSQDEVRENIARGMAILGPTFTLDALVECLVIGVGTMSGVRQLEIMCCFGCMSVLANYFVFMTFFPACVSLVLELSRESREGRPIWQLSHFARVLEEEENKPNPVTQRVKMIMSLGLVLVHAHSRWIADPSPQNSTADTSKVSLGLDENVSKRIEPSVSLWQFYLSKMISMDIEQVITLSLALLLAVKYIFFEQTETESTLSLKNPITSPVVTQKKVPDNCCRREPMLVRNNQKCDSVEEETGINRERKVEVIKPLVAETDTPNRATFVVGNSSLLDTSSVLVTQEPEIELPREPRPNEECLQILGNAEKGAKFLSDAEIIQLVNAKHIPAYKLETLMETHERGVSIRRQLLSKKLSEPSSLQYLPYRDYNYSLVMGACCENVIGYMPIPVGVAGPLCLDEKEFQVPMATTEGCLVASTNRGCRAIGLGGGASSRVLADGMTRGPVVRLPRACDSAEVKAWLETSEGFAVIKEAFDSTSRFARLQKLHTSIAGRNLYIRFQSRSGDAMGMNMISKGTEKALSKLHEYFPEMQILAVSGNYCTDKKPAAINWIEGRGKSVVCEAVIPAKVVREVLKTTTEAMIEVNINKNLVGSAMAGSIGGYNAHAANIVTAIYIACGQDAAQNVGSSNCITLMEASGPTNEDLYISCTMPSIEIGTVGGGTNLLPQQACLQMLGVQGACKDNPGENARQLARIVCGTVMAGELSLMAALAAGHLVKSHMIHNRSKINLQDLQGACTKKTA

Cannabinoid receptor 1 = Cannabinoid receptor 1 (Homo sapiens, UniProt P21554); format: cell membranes, Chem-1, Membrane; also: in other assays of this panel Not Active means under 50% inhibition at 10 µM
Sequence of Cannabinoid receptor 1 (P21554 whole entry): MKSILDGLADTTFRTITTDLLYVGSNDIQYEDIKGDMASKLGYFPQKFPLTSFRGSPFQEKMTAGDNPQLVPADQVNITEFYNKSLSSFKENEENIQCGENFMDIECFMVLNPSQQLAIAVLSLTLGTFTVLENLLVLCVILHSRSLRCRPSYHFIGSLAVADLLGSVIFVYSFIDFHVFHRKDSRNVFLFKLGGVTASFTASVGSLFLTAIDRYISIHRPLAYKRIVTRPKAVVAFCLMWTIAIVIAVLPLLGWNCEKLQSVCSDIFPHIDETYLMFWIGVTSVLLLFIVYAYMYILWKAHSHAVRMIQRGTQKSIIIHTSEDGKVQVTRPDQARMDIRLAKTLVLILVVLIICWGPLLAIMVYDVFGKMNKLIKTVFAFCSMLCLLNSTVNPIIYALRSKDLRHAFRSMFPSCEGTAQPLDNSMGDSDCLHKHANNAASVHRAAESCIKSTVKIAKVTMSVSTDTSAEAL

Adenosine receptor A2a = Adenosine receptor A2a (Homo sapiens, UniProt P29274); experiment: DRUGMATRIX: Adenosine A2A radioligand binding (ligand: […]); format: cell membranes, HEK293, Membrane; settings: Not Active = under 50% inhibition at 10 µM
Sequence of Adenosine receptor A2a (P29274 whole entry): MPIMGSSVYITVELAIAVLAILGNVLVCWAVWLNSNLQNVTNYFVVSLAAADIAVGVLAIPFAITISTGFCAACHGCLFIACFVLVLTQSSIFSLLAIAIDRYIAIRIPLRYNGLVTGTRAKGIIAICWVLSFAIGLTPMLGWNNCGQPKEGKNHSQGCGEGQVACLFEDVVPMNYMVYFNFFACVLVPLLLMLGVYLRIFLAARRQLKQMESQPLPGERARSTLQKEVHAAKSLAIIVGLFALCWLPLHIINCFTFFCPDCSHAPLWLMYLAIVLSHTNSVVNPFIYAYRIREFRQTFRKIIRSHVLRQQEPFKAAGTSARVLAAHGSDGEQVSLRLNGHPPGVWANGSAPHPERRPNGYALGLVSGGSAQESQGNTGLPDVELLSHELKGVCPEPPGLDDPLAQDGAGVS

Row | Molecule | IC50 (Cytochrome P450 2A6) | Ki (Cytochrome P450 2A6) | IC50 ([1]; read-out: IC50) | IC50 [2] | IC50 [3] | IC50 (Cannabinoid receptor 1; read-out: IC50) | Ki (Cannabinoid receptor 1; read-out: Ki) | IC50 (Adenosine receptor A2a; hek293) | IC50 ([1]; insect cells) | IC50 (Cannabinoid receptor 1; chem-1) | IC50 (Adenosine receptor A2a; read-out: IC50) | Ki (Adenosine receptor A2a; read-out: Ki) | Ki (Adenosine receptor A2a; hek293) | Ki ([1]; insect cells) | Ki [2] | Ki [3] | Ki (Cannabinoid receptor 1; chem-1)
1 | Clc1ccc(COC(Cn2ccnc2)c2ccc(Cl)cc2Cl)c(Cl)c1 (stereo not given) [MICONAZOLE] | Not Active | Not Active | 27.4 µM | Not Active | Not Active | 21 µM | 16.6 µM | – | – | – | – | – | – | – | – | – | –
2 | CC1CCC(NC(=O)N(CCCl)N=O)CC1 (stereo not given) [SEMUSTINE] | Not Active | Not Active | – | Not Active | Not Active | – | – | Not Active | Not Active | Not Active | – | – | – | – | – | – | –
3 | O=C1C[C@@H]2OCC=C3CN4CC[C@]56c7ccccc7N1[C@H]5[C@H]2[C@H]3C[C@H]46 [STRYCHNINE] | Not Active | Not Active | – | Not Active | Not Active | – | – | Not Active | Not Active | Not Active | – | – | – | – | – | – | –
4 | C[S+]([O-])c1ccc(-c2nc(-c3ccncc3)c(-c3ccc(F)cc3)[nH]2)cc1 (stereo not given) [SB-203580] | Not Active | Not Active | – | Not Active | Not Active | – | – | – | – | Not Active | 6.07 µM | 3.41 µM | – | – | – | – | –
5 | CC(=N)S [THIOACETAMIDE] | Not Active | Not Active | – | Not Active | Not Active | – | – | Not Active | Not Active | Not Active | – | – | – | – | – | – | –
6 | COC(=O)[C@H]1[C@H]2C[C@@H]3c4[nH]c5cc(OC)ccc5c4CCN3C[C@H]2C[C@@H](OC(=O)c2cc(OC)c(OC)c(OC)c2)[C@@H]1OC [RESERPINE] | Not Active | Not Active | – | Not Active | Not Active | – | – | Not Active | Not Active | Not Active | – | – | – | – | – | – | –
7 | O=c1[nH]c(=O)n(C2CCCO2)cc1F (stereo not given) [TEGAFUR] | Not Active | Not Active | – | Not Active | Not Active | – | – | Not Active | Not Active | Not Active | – | – | – | – | – | – | –
8 | C[N+](C)(C)CCOC(=O)CCC(=O)OCC[N+](C)(C)C.[Cl-].[Cl-] [SUCCINYLCHOLINE CHLORIDE] | Not Active | Not Active | – | Not Active | Not Active | – | – | Not Active | Not Active | Not Active | – | – | – | – | – | – | –
9 | CCCCC(=O)N(Cc1ccc(-c2ccccc2-c2nnn[nH]2)cc1)[C@H](C(=O)O)C(C)C | Not Active | Not Active | – | Not Active | Not Active | – | – | Not Active | Not Active | Not Active | – | – | – | – | – | – | –
10 | CN1CCN(C2=Nc3cc(Cl)ccc3Nc3ccccc32)CC1 [CLOZAPINE] | Not Active | Not Active | – | Not Active | Not Active | – | – | Not Active | Not Active | Not Active | – | – | – | – | – | – | –
11 | Oc1ccc2c3c1O[C@H]1[C@@H](O)CC[C@@]4(O)[C@@H](C2)N(CC2CCC2)CC[C@]314 [NALBUPHINE] | – | – | – | Not Active | Not Active | – | – | Not Active | Not Active | Not Active | – | – | – | – | – | – | –
12 | CN(C)C(=O)C(CCN1CCC(O)(c2ccc(Cl)cc2)CC1)(c1ccccc1)c1ccccc1 [LOPERAMIDE] | Not Active | Not Active | – | Not Active | Not Active | – | – | Not Active | Not Active | Not Active | – | – | – | – | – | – | –
13 | O=C(O)c1ccccc1O [SALICYLIC ACID] | Not Active | Not Active | – | Not Active | Not Active | – | – | Not Active | Not Active | Not Active | – | – | – | – | – | – | –
14 | Nc1ccc(S(=O)(=O)NC(=O)c2ccccc2)cc1 [SULFABENZAMIDE] | Not Active | Not Active | – | Not Active | Not Active | – | – | Not Active | Not Active | Not Active | – | – | – | – | – | – | –
15 | C[C@@](Cc1ccc(O)c(O)c1)(NN)C(=O)O.O [CARBIDOPA] | Not Active | Not Active | – | Not Active | Not Active | – | – | Not Active | Not Active | Not Active | – | – | – | – | – | – | –
16 | CCCCCCCCNC(C)C(O)c1ccc(SC(C)C)cc1 (stereo not given) [SULOCTIDIL] | Not Active | Not Active | – | Not Active | Not Active | – | – | Not Active | Not Active | Not Active | – | – | – | – | – | – | –
17 | CN1CCN(CCCN2c3ccccc3Sc3ccc(C(F)(F)F)cc32)CC1 [TRIFLUOPERAZINE] | Not Active | Not Active | – | Not Active | Not Active | – | – | Not Active | Not Active | Not Active | – | – | – | – | – | – | –
18 | C[C@]12C=CC(=O)C=C1CC[C@@H]1[C@@H]2C(=O)C[C@@]2(C)[C@H]1CC[C@]2(O)C(=O)CO [PREDNISONE] | – | – | – | Not Active | Not Active | – | – | Not Active | Not Active | Not Active | – | – | – | – | – | – | –
19 | OCCOCCN1CCN(C2=Nc3ccccc3Sc3ccccc32)CC1 [QUETIAPINE] | Not Active | Not Active | – | Not Active | Not Active | – | – | Not Active | Not Active | Not Active | – | – | – | – | – | – | –
20 | CC(C)NC[C@H](O)COc1cccc2ccccc12 [LEVOPROPRANOLOL] | Not Active | Not Active | – | Not Active | Not Active | – | – | Not Active | Not Active | Not Active | – | – | – | – | – | – | –
21 | O=C(O)CCCCC1CCSS1 (stereo not drawn) [LIPOIC ACID, ALPHA] | Not Active | Not Active | – | Not Active | Not Active | – | – | Not Active | Not Active | Not Active | – | – | – | – | – | – | –
22 | CC(C)NC[C@@H](O)COc1cccc2ccccc12 [DEXPROPRANOLOL] | Not Active | Not Active | – | Not Active | Not Active | – | – | Not Active | Not Active | Not Active | – | – | – | – | – | – | –
23 | Cc1ccc(C(=O)c2ccc(CC(=O)O)n2C)cc1 [TOLMETIN] | Not Active | Not Active | – | Not Active | Not Active | – | – | Not Active | Not Active | Not Active | – | – | – | – | – | – | –
24 | CC(=O)OCC(COC(C)=O)OC(C)=O [TRIACETIN] | Not Active | Not Active | – | Not Active | Not Active | – | – | Not Active | Not Active | Not Active | – | – | – | – | – | – | –
25 | TRANSPLATIN | Not Active | Not Active | – | Not Active | Not Active | – | – | Not Active | Not Active | Not Active | – | – | Not Active | Not Active | Not Active | Not Active | Not Active
26 | O=C(O)COc1ccc(C(=O)c2cccs2)c(Cl)c1Cl | Not Active | Not Active | – | Not Active | Not Active | – | – | Not Active | Not Active | Not Active | – | – | – | – | – | – | –
27 | CN1[C@@H]2CC[C@H]1C[C@@H](OC(c1ccccc1)c1ccccc1)C2 [BENZTROPINE] | Not Active | Not Active | – | Not Active | Not Active | – | – | Not Active | Not Active | Not Active | – | – | – | – | – | – | –
